Test results reported in patent US20050209104A1, “Dinoflagellate karlotoxins, methods of isolation and uses thereof” (priority 2002, published 2005).
In brackets after ≈: the same amount, converted by molar mass.

Assays:
[1] = system: rainbow trout erythrocytes
Description: The filtrate from water samples collected on Feb. […] Environmental water samples were allowed to thaw to room temperature and passed through a Sep-Pak Plus tC18 disposable cartridge (Waters Corp., Milford Mass.), attached to a vacuum manifold. The column was pre-equilibrated with methanol (20 ml) followed by H2O (20 ml). The cartridges were eluted with the following concentrations of MeOH/H2O: 100% H2O, 40%, 60%, 80%, and 100% MeOH (12 ml ea^−1). An aliquot of each elution was diluted, using Tris buffer +CaCl2, to give final dilutions ranging from 6 to 60% of original concentrations. […] The occurrence of hemolytic activity was determined by the absorbance of released hemoglobin, measured at 540 nm. Saponin (10 μg) served as a positive hemolysin control. Treatments were run in quadruplicate.
A hemolytic assay based on the lysis of fish erythrocytes was utilized to screen for bioactive materials. Cultures and culture fractions that were positive in the hemolytic assay were tested further using assays for ichthyotoxicity and cytotoxicity.
Blood was extracted from the caudal vein of rainbow trout (Oncorhynchus mykis) provided by the Center of Marine Biotechnology's Aquaculture Research Center. Needles were heparin (Sigma Chemical Co., St. Louis Mo.) treated and 10 units ml^−1 of additional heparin was added to whole blood samples to prevent clotting. […] Buffer pH was adjusted to 7.4 at 10° C. with 1N HCl, then filter sterilized (0.22 μm). […] Suspensions were stored at 4° C. for no longer than 10 days.
Hemolytic assays were performed by diluting test material in Tris buffer +CaCl2 (100 μl total) and adding this to a 5% erythrocyte suspension (100 μl). […] Assays were incubated on an orbital shaker (80-100 rpm) at 20° C. for 1 hour. Plates were then centrifuged at 2500 g for 5 min. and the supernatant (100 μl) was transferred to another flat bottom 96 well polystyrene plate, where the absorbance of released hemoglobin was read at 540 nm. Saponin (10 μg) (from Quillaja bark; Sigma Chemical Co., St. Louis Mo.) was used as a positive hemolysin control All treatments were run in quadruplicate.
LC50values and ranges were determined by Probit analysis (SPSS Base 10.0, SPSS Inc., Chicago Ill.).
Blood was extracted from the caudal vein of rainbow trout (Oncorhynchus mykis). […] Buffer pH was adjusted to 7.4 at 10° C. with 1N HCl, then filter sterilized (0.22 um). […] Blood suspensions were stored at 4° C. for no longer than 10 days.
Hemolysis assays were performed by diluting test material in Tris buFFer +CaCl2 (100 ul) and adding this to 100 ul of a 5% erythrocyte suspension for a total assay volume of 200 ul. […] Plates were incubated on an orbital shaker (80-100 rpm) at 20° C. for 1 hour. Plates were then centrifuged at 2000 g for 5 min. and the supernatant (100 ul) was transferred to a new flat bottom 96 well polystyrene plate, where the absorbance of released hemoglobin was read at 540 nm. Saponin (from Quillaja bark; Sigma Chemical Co., St. Louis Mo.) was used as a positive hemolysin control. Percent hemolysis (0-100%) was calculated from comparison to un-treated controls and samples treated with 10 ug saponin. All treatments were run in quadruplicate.
Hemolytic LC50 values were calculated from a dilution series of KmTx 2 and amphotericin B. LC50 values and ranges were determined by Probit analysis using a SPSS Base 10.0 statistical software package (SPSS Inc., Chicago, Ill.).

[2] = system: Candida albicans (ATCC 14053); assay: Anti-fungal broth microdilution assay (yeast); type: cell-based; conditions: lowest dose with no growth after 96 hours, 28° C.
Description: The following fungal strains were purchased from the American Type Culture Collection (Manassas, Va.), Aspergillus niger (ATCC 1004) as a representative filamentous fungi, and Candida albicans (ATCC 14053) as a representative yeast. Assays were performed according to the following National Committee for Clinical Laboratory Standards documents; M27-A2 Reference Method for Broth Dilution Antifungal Susceptibility Testing of Yeasts; Approved Standard—Second Edition([NCCLS, 2002), and M38-A Reference Method for Broth Dilution Antifungal Susceptibility Testing of Filamentous Fungi; Approved Standard (NCCLS, 2002). Procedures for the broth microdilution modification were followed for both species with the following exceptions; A. niger stocks were maintained on Potato Dextrose Agar at 25° C., while C. albicans was maintained on Yeast Malt Agar at 28° C., both according to ATCC recommendations. Amphotericin B was used as a positive control. Microdilution assays were performed in HyQ-RPMI-1640 media (HyClone, Logan, Utah.), with 2.05 mM L-glutamine, without sodium bicarbonate, pH 7.2 using dilutions of 1 mg/ml DMSO stocks of KmTx 2 and amphotericin B.
The following concentrations were tested for both KmTx2 and amphotericin B: 0.0625, 0.125, 0.25, 0.5, 1, 2, 4, 8, and 16 μg/ml. A maximum of 1.6% DMSO was added to any given well. Plates were incubated at 25 and 28° C., respectively, for A. niger and C. albicans. […] Amphotericin B and all culture media were purchased from Sigma-Aldrich (St. Louis, Mo.).

K. micrum (CCMP 2282) = assay: Exposure of Karlodinium micrum to KmTx 2; type: cell-based
Description: Oxyrrhis marina (1.7×10^4 cells/mil) and K. micrum (CCMP 2282) (3.5×10^4 cells/ml) were exposed, in triplicate, to 0, 0.1, 0.5, and 1 μg/ml KmTx 2 in six well non-tissue culture treated polystyrene plates (Becton Dickinson Labware, Lincoln Park N.J.). The O. marina culture was obtained through single cell isolation from a Chesapeake Bay water sample and was maintained in 15 psu artificial sea water (Instant Ocean Brand) using Rhodomonas sp. (CCMP 767) as a food source. O. marina was starved for 24 hours prior to exposures to reduce the number of food organisms. K. micrum (CCMP 2282) was maintained in 12 psu artificial sea water (Instant Ocean Brand) with f/2 nutrient mixture plus 1% soil extract as described in Deeds et al. (2002). Cell densities were measured at 1 and 24 hours using a Coulter Multisizer II particle counter by enumerating the 7-20 μm and the […] size fractions, respectively, for K. micrum and O. marina using a Coulter Accucomp software package (Coulter Electronics Limited, Miami Fla.). […]
Hemolytic activity remaining in solution was measured at 1 hour by mixing 100 μl of each treatment with an equal volume of diluted rainbow trout RBC suspension as described above in Example 3.

[3] = system: rat ventricular cardiac myocytes; assay: Ion permeation measurement, Ca^2+ with fura-2 (cardiac myocyte); type: cell-based; conditions: 60 seconds after application of 0.25 μg/ml

C=C(CC[C@H](O)[C@H]1O[C@H](C[C@@H](O)[C@H](O)[C@H](C)CCC[C@@H](O)[C@H](O)[C@H](O)[C@@H](C)CC[C@@H](O)[C@H](O)[C@H](C)C[C@@H](O)CCC[C@@H](O)CCC[C@@H](O)/C=C/C[C@@H](O)CO)[C@@H](O)[C@@H](O)[C@@H]1O)[C@H](O)[C@H](O)[C@@H]1C[C@H](O)[C@H](O)[C@@H]([C@H](O)[C@@H](O)/C=C/CCCCCCCC/C=C/C=C/Cl)O1 [KmTx 2]
hemolytic LC50 ([1]; probit analysis of dilution series): 0.368 µg/mL | hemolytic activity compared to amphotericin B ([1]; rainbow trout erythrocytes): ten fold higher | Minimal inhibitory concentration (MIC) [2]: 16 µg/mL (≈ 11.9 µM) | K. micrum culture growth (K. micrum (CCMP 2282); 1 μg/ml, after 24 hours): continued to divide | effect on cultures of K. micrum (K. micrum (CCMP 2282); 0.1, 0.5, and 1 μg/ml): no effect | [Ca^2+]i in cardiac myocyte [3]: dramatically elevated
